In patent US20020058288A1, “TOXOPLASMA GONDII GLYCOCONJUGATES” (priority 1995, published 2002):

How the values were obtained:
the trypanosome = conditions: cited from earlier work
[1] = test system: binding of mAb T54E10 to the n-butanol species; experiment: ELISA inhibition-binding study, mAb T54E10 on n-butanol fraction GPI species; design: species or system mouse
Description: The GPI species of the n-butanol fraction were coated on microtiter wells at a coat concentration which corresponds to 10^6 tachyzoites per well. […] Ethanolamine (10 mM) itself was able to inhibit the binding of mAb T54E10 by 50%. All other compounds tested were not able to inhibit the binding of the monoclonal antibody. However, the binding of human anti-Toxoplasma antibodies was not affected by any of the compounds tested.
FIG. 6: Inhibition ELISA: Inhibition ELISA using glycolipids contained in the butanol phase as antigen and mAb T54E10

CCCOCCCCCCCCCC(=O)O [10-(propoxy) decanoic acid]
Toxicity to the trypanosome (the trypanosome): selective toxicity

NCCO [Ethanolamine]
Inhibition of the binding of mAb T54E10 ([1]; 10 mM): 50%

NCCOP(=O)(O)O [ethanolamine-phosphate]
Inhibition of binding of mAb T54E10 to n-butanol species ([1]; coat corresponding to 10^6 tachyzoites per well, FIG. 6): inhibited
